Several values for one entry are separate records, joined by “and”; a condition that tells them apart may be missing. Identical values can stand only once.
Settings: Liquid, Vibrating tube method

CCCCC(=O)OCC(COC(=O)CCCC)(COC(=O)CCCC)COC(=O)CCCC [pentaerythritol tetrapentanoate]
Settings	mass density
283.15 K, 33510 kPa	1045.5 kg/m3
283.15 K, 33550 kPa	1045.6 kg/m3
283.15 K, 33599 kPa	1045.6 kg/m3
283.15 K, 33639 kPa	1045.6 kg/m3
283.15 K, 33681 kPa	1045.6 kg/m3
283.15 K, 33731 kPa	1045.6 kg/m3
283.15 K, 33772 kPa	1045.7 kg/m3
283.15 K, 33815 kPa	1045.7 kg/m3
283.15 K, 33865 kPa	1045.8 kg/m3
283.15 K, 33908 kPa	1045.8 kg/m3
283.15 K, 33951 kPa	1045.8 kg/m3
283.15 K, 34004 kPa	1045.7 kg/m3
283.15 K, 34048 kPa	1045.8 kg/m3
283.15 K, 34093 kPa	1045.7 kg/m3
283.15 K, 34144 kPa	1045.8 kg/m3
283.15 K, 34173 kPa	1046 kg/m3
283.15 K, 34198 kPa	1045.9 kg/m3
283.15 K, 34220 kPa	1046 kg/m3
283.15 K, 34242 kPa	1045.8 kg/m3
283.15 K, 34265 kPa	1045.9 kg/m3
283.15 K, 34290 kPa	1045.9 kg/m3
283.15 K, 34312 kPa	1046 kg/m3
283.15 K, 34335 kPa	1046 kg/m3
283.15 K, 34364 kPa	1045.9 kg/m3
283.15 K, 34387 kPa	1045.9 kg/m3
283.15 K, 34410 kPa	1046 kg/m3
283.15 K, 34438 kPa	1046 kg/m3
283.15 K, 34461 kPa	1046 kg/m3
283.15 K, 34485 kPa	1046 kg/m3
283.15 K, 34516 kPa	1046.1 kg/m3
283.15 K, 34542 kPa	1046 kg/m3
283.15 K, 34572 kPa	1046.1 kg/m3
283.15 K, 34604 kPa	1046 kg/m3
283.15 K, 34620 kPa	1046.1 kg/m3
283.15 K, 34636 kPa	1046 kg/m3
283.15 K, 34638 kPa	1046.3 kg/m3
283.15 K, 34639 kPa	1046.1 kg/m3
283.16 K, 25316 kPa	1041.3 kg/m3
303.15 K, 106.42 kPa	1010.9 kg/m3
303.15 K, 106.59 kPa	1010.8 kg/m3 and 1010.9 kg/m3
303.15 K, 106.6 kPa	1010.9 kg/m3 and 1010.8 kg/m3
303.15 K, 106.76 kPa	1010.9 kg/m3
303.15 K, 106.77 kPa	1010.9 kg/m3
303.15 K, 106.94 kPa	1010.9 kg/m3 and 1010.8 kg/m3
303.15 K, 107.11 kPa	1010.9 kg/m3
303.15 K, 107.29 kPa	1010.9 kg/m3
303.15 K, 108.17 kPa	1010.9 kg/m3
303.15 K, 109.2 kPa	1010.9 kg/m3
303.15 K, 110.59 kPa	1010.9 kg/m3
303.15 K, 112.86 kPa	1010.8 kg/m3
303.15 K, 117.2 kPa	1011 kg/m3
303.15 K, 123.99 kPa	1010.9 kg/m3
303.15 K, 133.19 kPa	1010.9 kg/m3
303.15 K, 144.48 kPa	1010.9 kg/m3
303.15 K, 156.14 kPa	1010.9 kg/m3
303.15 K, 171.79 kPa	1010.8 kg/m3
303.15 K, 193.18 kPa	1011 kg/m3
303.15 K, 228.98 kPa	1011 kg/m3
303.15 K, 269.29 kPa	1010.9 kg/m3
303.15 K, 314.67 kPa	1011 kg/m3
303.15 K, 395.83 kPa	1011.2 kg/m3
303.15 K, 513.49 kPa	1011.2 kg/m3
303.15 K, 630.95 kPa	1011.3 kg/m3
303.15 K, 647.46 kPa	1011.3 kg/m3
303.15 K, 648.16 kPa	1011.3 kg/m3
303.15 K, 649.02 kPa	1011.3 kg/m3
303.15 K, 649.71 kPa	1011.3 kg/m3
303.15 K, 650.58 kPa	1011.3 kg/m3
303.15 K, 651.45 kPa	1011.3 kg/m3
303.15 K, 652.32 kPa	1011.2 kg/m3
303.15 K, 652.67 kPa	1011.3 kg/m3
303.15 K, 653.36 kPa	1011.3 kg/m3
303.15 K, 654.41 kPa	1011.3 kg/m3
303.15 K, 654.92 kPa	1011.2 kg/m3
303.15 K, 655.97 kPa	1011.2 kg/m3
303.15 K, 657.2 kPa	1011.2 kg/m3
303.15 K, 657.72 kPa	1011.4 kg/m3
303.15 K, 658.58 kPa	1011.3 kg/m3
303.15 K, 659.27 kPa	1011.1 kg/m3
303.15 K, 660.31 kPa	1011.3 kg/m3
303.15 K, 661.18 kPa	1011.3 kg/m3
303.15 K, 661.53 kPa	1011.3 kg/m3
303.15 K, 662.58 kPa	1011.2 kg/m3
303.15 K, 664.14 kPa	1011.4 kg/m3
303.15 K, 666.75 kPa	1011.3 kg/m3
303.15 K, 667.79 kPa	1011.3 kg/m3
303.15 K, 668.65 kPa	1011.3 kg/m3
303.15 K, 669.35 kPa	1011.2 kg/m3
303.15 K, 670.22 kPa	1011.2 kg/m3
303.15 K, 675.62 kPa	1011.2 kg/m3
303.15 K, 675.96 kPa	1011.2 kg/m3
303.15 K, 676.49 kPa	1011.4 kg/m3
303.15 K, 677.36 kPa	1011.3 kg/m3
303.15 K, 678.05 kPa	1011.3 kg/m3
303.15 K, 679.27 kPa	1011.2 kg/m3
303.15 K, 680.14 kPa	1011.3 kg/m3
303.15 K, 681.01 kPa	1011.3 kg/m3
303.15 K, 681.71 kPa	1011.3 kg/m3
303.15 K, 682.41 kPa	1011.2 kg/m3
303.15 K, 685.7 kPa	1011.3 kg/m3
303.15 K, 686.57 kPa	1011.3 kg/m3
303.15 K, 688.83 kPa	1011.2 kg/m3
303.15 K, 689.69 kPa	1011.2 kg/m3
303.15 K, 690.56 kPa	1011.4 kg/m3
303.15 K, 691.43 kPa	1011.3 kg/m3
303.15 K, 692.3 kPa	1011.4 kg/m3
303.15 K, 693.35 kPa	1011.3 kg/m3
303.15 K, 694.56 kPa	1011.3 kg/m3
303.15 K, 695.08 kPa	1011.3 kg/m3
303.15 K, 696.12 kPa	1011.3 kg/m3
303.15 K, 697.16 kPa	1011.3 kg/m3
303.15 K, 698.02 kPa	1011.3 kg/m3
303.15 K, 698.55 kPa	1011.3 kg/m3
303.15 K, 699.59 kPa	1011.3 kg/m3
303.15 K, 703.59 kPa	1011.2 kg/m3
303.15 K, 704.11 kPa	1011.3 kg/m3
303.15 K, 705.15 kPa	1011.3 kg/m3
303.15 K, 706.21 kPa	1011.3 kg/m3
303.15 K, 707.07 kPa	1011.3 kg/m3
303.15 K, 708.28 kPa	1011.3 kg/m3
303.15 K, 709.15 kPa	1011.2 kg/m3
303.15 K, 710.02 kPa	1011.3 kg/m3
303.15 K, 711.24 kPa	1011.3 kg/m3
303.15 K, 711.93 kPa	1011.4 kg/m3
303.15 K, 712.98 kPa	1011.3 kg/m3
303.15 K, 713.84 kPa	1011.2 kg/m3
303.15 K, 714.72 kPa	1011.3 kg/m3
303.15 K, 715.75 kPa	1011.3 kg/m3
303.15 K, 716.62 kPa	1011.3 kg/m3
303.15 K, 717.84 kPa	1011.3 kg/m3
303.15 K, 719.05 kPa	1011.4 kg/m3
303.15 K, 720.1 kPa	1011.3 kg/m3
303.15 K, 720.79 kPa	1011.3 kg/m3
303.15 K, 721.67 kPa	1011.2 kg/m3
303.15 K, 722.71 kPa	1011.3 kg/m3
303.15 K, 723.76 kPa	1011.3 kg/m3
303.15 K, 724.45 kPa	1011.3 kg/m3
303.15 K, 725.83 kPa	1011.4 kg/m3
303.15 K, 726.87 kPa	1011.3 kg/m3
303.15 K, 727.92 kPa	1011.4 kg/m3
303.15 K, 728.79 kPa	1011.3 kg/m3
303.15 K, 730.17 kPa	1011.2 kg/m3
303.15 K, 730.7 kPa	1011.4 kg/m3
303.15 K, 731.58 kPa	1011.3 kg/m3
303.15 K, 733.65 kPa	1011.3 kg/m3
303.15 K, 734.7 kPa	1011.3 kg/m3
303.15 K, 735.91 kPa	1011.2 kg/m3
303.15 K, 736.78 kPa	1011.2 kg/m3
303.15 K, 737.82 kPa	1011.3 kg/m3
303.15 K, 739.04 kPa	1011.4 kg/m3
303.15 K, 740.26 kPa	1011.3 kg/m3
303.15 K, 741.3 kPa	1011.3 kg/m3
303.15 K, 742.16 kPa	1011.4 kg/m3
303.15 K, 743.2 kPa	1011.3 kg/m3
303.15 K, 744.08 kPa	1011.2 kg/m3
303.15 K, 745.47 kPa	1011.3 kg/m3
303.15 K, 746.33 kPa	1011.3 kg/m3
303.15 K, 747.56 kPa	1011.3 kg/m3
303.15 K, 748.76 kPa	1011.4 kg/m3
303.15 K, 749.63 kPa	1011.3 kg/m3
303.15 K, 750.5 kPa	1011.4 kg/m3

Reference: the NIST ThermoML archive (doi:10.1021/je060271a)
